12 molecules from patent publication US8871753B2, “Macrocyclic compounds and their use as kinase inhibitors” (Incyte Corporation, priority 2008, dated 2014) can be followed below.

What all share (type): biochemical
Test [1] concerns the target T1, human JAK2 (a.a. 828-1132) (Homo sapiens, UniProt O60674).
T1 construct: JAK2 (a.a. 828-1132); His tag (N); made in house; host or cells: insect cells (baculovirus)
Put plainly: In vitro JAK kinase assay (HTRF, phosphorylation of a biotinylated peptide), JAK2. A digest of the protocol: (§1)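 Kinase reactions ran at room temperature for 1 h with ATP matched per isoform (JAK1 90 μM, JAK2 30 μM, JAK3 3 μM). After an EDTA stop, the phosphorylated biotin-peptide was read by HTRF using Eu-Py20 and SA-APC after 40 min binding.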

The next test deals with TYK2 (Homo sapiens, UniProt P29597). Put plainly: TYK2 kinase inhibition (Table A1).
Chain of TYK2 (P29597 whole entry): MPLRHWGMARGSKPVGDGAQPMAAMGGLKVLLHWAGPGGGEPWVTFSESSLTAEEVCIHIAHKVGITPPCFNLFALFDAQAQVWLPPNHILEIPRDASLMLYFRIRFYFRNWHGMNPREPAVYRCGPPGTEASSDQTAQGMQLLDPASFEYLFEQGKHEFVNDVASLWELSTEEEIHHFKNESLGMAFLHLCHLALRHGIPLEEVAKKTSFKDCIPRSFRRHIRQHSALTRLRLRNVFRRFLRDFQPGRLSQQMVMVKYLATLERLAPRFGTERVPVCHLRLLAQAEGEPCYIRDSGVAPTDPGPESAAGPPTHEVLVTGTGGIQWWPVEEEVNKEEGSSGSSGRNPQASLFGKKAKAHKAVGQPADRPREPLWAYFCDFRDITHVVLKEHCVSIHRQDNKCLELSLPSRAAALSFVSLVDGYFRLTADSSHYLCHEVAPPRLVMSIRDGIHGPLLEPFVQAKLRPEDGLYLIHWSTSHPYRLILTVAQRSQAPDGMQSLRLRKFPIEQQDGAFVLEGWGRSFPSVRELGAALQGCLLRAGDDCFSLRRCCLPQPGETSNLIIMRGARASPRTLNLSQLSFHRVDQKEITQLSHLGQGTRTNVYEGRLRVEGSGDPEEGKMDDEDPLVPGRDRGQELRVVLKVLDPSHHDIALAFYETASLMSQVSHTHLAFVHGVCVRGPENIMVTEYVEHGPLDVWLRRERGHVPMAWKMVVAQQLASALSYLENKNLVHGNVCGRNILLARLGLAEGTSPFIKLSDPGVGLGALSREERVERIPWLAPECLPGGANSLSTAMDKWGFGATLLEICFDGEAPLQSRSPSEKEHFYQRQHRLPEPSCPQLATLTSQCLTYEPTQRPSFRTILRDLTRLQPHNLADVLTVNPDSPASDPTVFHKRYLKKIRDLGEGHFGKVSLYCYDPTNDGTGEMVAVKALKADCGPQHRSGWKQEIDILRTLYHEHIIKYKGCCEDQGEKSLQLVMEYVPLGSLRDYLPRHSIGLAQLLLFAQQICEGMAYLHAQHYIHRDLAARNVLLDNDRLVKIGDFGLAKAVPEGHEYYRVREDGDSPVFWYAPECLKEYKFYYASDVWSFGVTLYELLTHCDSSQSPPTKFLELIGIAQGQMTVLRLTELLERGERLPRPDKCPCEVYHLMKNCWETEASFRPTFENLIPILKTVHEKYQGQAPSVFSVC
For test [2], the target named is T2, human JAK3 (a.a. 781-1124) (Homo sapiens, UniProt P52333).
T2 construct: JAK3 (a.a. 781-1124); His tag (N); made in house; host or cells: insect cells (baculovirus)
T2 sequence (P52333 781-1124): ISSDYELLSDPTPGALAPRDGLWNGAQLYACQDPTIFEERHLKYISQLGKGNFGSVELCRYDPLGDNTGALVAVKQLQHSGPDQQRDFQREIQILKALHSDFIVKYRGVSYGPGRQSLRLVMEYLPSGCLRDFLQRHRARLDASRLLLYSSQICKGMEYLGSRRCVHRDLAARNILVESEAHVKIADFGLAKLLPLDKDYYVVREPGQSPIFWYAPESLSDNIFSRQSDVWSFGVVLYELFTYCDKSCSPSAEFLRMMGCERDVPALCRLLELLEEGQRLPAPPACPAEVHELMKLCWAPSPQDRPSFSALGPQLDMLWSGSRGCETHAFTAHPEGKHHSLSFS
The test is described as follows: In vitro JAK kinase assay (HTRF, phosphorylation of a biotinylated peptide), JAK3. The method in brief: as §1

Test [3] concerns the target T3, human JAK1 (a.a. 837-1142) (Homo sapiens, UniProt P23458).
T3 construct: human JAK1 (a.a. 837-1142); His tag (N); made in house; host or cells: insect cells (baculovirus)
The test is described as follows: In vitro JAK kinase assay (HTRF, phosphorylation of a biotinylated peptide), JAK1. The following applies: read-out: JAK1 IC50. A digest of the protocol: as §1

Test [4] concerns the target T4, Recombinant Human Anaplastic Lymphoma Kinase (Homo sapiens, UniProt Q9UM73).
T4 construct: purchased Invitrogen, Carlsbad, Calif
The test is described as follows: ALK HTRF kinase assay. A digest of the protocol: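 IC50 was obtained from a logistic fit of signal versus log inhibitor concentration, using pre- and post-transition baselines and a Hill slope. The signal reported tyrosine phosphorylation of a biotinylated peptide by recombinant human kinase, detected as Eu-to-APC energy transfer.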

The mark [5] stands for this setting: method AA1 (30 μM ATP) or AA2 (1000 μM ATP), not stated per value.
[6] abbreviates: method AA1 (3 μM ATP) or AA2 (1000 μM ATP), not stated per value.
The mark [7] stands for this setting: method AA1 (90 μM ATP) or AA2 (1000 μM ATP), not stated per value.
Where [8] appears, read: compound at 500 nM or 1 mM, 90 μM ATP.
[9] abbreviates: compound at a concentration of 500 nM or 1 mM (not specified), cells shown as percentage.
[10] abbreviates: Table B1, cells without percent sign.

Molecules are shown by their SMILES. pIC50: −log10 of the molar value. Where a name gives a salt, the structure may show the parent alone. Read-outs that look alike come from different tables or passages of the source.

T3 sequence (P23458 849-1154): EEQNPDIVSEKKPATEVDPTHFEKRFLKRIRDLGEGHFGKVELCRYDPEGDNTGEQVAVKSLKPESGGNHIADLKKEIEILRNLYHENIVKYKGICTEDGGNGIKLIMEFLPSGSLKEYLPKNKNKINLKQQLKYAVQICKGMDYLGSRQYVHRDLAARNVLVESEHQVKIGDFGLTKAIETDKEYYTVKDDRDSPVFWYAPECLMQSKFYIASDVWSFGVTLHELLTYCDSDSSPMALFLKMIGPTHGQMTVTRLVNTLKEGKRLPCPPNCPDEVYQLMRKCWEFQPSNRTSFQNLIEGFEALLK
T4 sequence (Q9UM73 19-1620): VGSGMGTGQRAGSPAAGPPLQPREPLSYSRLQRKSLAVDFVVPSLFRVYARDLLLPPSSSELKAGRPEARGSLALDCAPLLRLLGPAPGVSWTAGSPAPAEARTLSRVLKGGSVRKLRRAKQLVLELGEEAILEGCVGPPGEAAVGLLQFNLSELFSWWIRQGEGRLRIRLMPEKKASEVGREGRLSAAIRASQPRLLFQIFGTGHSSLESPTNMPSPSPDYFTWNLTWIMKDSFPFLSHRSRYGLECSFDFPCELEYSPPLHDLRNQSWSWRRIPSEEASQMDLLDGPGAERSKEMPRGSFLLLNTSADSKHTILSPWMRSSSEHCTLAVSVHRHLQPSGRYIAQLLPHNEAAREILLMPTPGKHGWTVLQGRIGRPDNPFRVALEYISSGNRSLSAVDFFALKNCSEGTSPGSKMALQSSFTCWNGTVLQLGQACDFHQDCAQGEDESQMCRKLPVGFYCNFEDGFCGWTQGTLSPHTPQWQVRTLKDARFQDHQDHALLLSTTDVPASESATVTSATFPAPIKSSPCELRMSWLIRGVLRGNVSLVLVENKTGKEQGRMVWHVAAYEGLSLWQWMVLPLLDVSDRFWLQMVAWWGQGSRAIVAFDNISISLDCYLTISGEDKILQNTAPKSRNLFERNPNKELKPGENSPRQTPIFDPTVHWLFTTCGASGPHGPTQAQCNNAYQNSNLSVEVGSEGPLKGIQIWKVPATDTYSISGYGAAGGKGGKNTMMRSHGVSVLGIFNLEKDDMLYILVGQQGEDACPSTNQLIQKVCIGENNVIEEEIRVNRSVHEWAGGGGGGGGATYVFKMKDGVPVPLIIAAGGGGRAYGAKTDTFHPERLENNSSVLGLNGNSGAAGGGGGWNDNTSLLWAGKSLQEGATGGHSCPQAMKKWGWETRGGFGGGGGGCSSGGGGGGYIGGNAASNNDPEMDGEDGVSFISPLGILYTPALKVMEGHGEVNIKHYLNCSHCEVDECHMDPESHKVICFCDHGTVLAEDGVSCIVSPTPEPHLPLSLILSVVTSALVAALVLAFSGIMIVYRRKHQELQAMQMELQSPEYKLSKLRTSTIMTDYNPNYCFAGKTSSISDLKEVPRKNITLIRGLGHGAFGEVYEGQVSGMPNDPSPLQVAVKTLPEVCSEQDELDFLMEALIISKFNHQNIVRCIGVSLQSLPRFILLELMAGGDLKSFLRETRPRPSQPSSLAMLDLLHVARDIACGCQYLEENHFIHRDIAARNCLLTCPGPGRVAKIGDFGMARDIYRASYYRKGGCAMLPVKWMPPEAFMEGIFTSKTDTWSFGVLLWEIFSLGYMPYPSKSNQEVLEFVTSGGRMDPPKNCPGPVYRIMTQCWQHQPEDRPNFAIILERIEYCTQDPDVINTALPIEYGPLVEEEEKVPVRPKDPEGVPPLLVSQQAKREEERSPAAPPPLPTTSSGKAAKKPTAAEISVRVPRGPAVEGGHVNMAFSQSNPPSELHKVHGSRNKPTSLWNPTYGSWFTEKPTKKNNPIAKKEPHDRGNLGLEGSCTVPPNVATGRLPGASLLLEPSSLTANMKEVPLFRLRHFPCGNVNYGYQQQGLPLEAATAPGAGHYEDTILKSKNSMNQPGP
T1 sequence (O60674 828-1132): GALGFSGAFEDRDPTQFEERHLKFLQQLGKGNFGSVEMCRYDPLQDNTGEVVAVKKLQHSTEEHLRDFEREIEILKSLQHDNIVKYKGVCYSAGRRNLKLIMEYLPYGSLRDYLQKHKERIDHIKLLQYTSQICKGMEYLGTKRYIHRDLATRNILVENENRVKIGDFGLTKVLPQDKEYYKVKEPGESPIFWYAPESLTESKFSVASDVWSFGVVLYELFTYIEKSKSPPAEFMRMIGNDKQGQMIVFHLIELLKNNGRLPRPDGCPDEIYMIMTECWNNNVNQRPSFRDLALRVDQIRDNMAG

`O=C(Nc1ccc2cc1CCc1cccc(c1)Nc1ncc(Cl)c(n1)N2)C1CCN(C(=O)Nc2ccccc2)CC1` [Example A36, N(4)-[6-Chloro-2,4,8,22-tetraazatetracyclo[14.3.1.1(3,7).1(9,13)]docosa-1(20),3(22),4,6,9(21),10,12,16,18-nonaen-12-yl]-N(1)-phenylpiperidine-1,4-dicarboxamide trifluoroacetate]: the pIC50 in test [1] (setting [5]) was 8.17; against TYK2, 7.57; in test [2] (setting [6]), 7.59; in test [3] (setting [7]), 8.62. Moreover, the “ALK % of inhibition at a concentration of 500 nM or 1 mM” value (“ALK % of inhibition” for short) in test [4] (setting [8]) is 48%.
With `O=C(Nc1ccc2cc1CCc1cccc(c1)Nc1ncc(Cl)c(n1)N2)C1CCCN(C(=O)NC2CCCC2)C1` (stereo not drawn) [Example A62, N(3)-[6-Chloro-2,4,8,22-tetraazatetracyclo[14.3.1.1(3,7).1(9,13)]docosa-1(20),3(22),4,6,9(21),10,12,16,18-nonaen-12-yl]-N(1)-cyclopentylpiperidine-1,3-dicarboxamide trifluoroacetate], the pIC50 in test [1] (setting [5]) was 8.25; against TYK2 it was 7.92; in test [2] (setting [6]), 8.04; in test [3] (setting [7]) it was 8.15. For the same molecule, in test [4] (setting [8]), the “ALK % of inhibition” value came out at 26%.
Consider `O=C(Nc1cc2cc(c1)OCCSc1cccc(c1)Nc1nc(ncc1Cl)N2)c1cccs1` [Example D63, N-[6-Chloro-17-oxa-14-thia-2,4,8,24-tetraazatetracyclo[16.3.1.1(3,7).1(9,13)]tetracosa-1(22),3(24),4,6,9(23),10,12,18,20-nonaen-20-yl]thiophene-2-carboxamide trifluoroacetate], for which the pIC50 was 8.82 in test [1] (Table D1); 8.27 against TYK2 (Table D1); 7.72 in test [2] (Table D1); 8.17 in test [3] (Table D1); 6.21 in test [4] (Table D1, 90 μM ATP).
Take `O=C(CC1CCN(C(=O)c2nccs2)CC1)Nc1ccc2cc1CCc1cncc(c1)Nc1ncc(Cl)c(n1)N2` [Example A133, N-[6-Chloro-2,4,8,18,22-pentaazatetracyclo[14.3.1.1(3,7).1(9,13)]docosa-1(20),3(22),4,6,9(21),10,12,16,18-nonaen-12-yl]-2-[1-(1,3-thiazol-2-ylcarbonyl)piperidin-4-yl]acetamide bis(trifluoroacetate)]: the pIC50 was 7.96 in test [1] (setting [5]), 8.26 at TYK2, 7.14 in test [2] (setting [6]) and 8.68 in test [3] (setting [7]). Further, the “ALK % of inhibition” value in test [4] (setting [8]) stood at 32%.
Consider `O=C(Nc1ccc2cc1CCc1cccc(c1)Nc1ncc(Cl)c(n1)N2)N[C@H]1CCN(C(=O)c2cccnc2)C1` [Example B171, N-[6-Chloro-2,4,8,22-tetraazatetracyclo[14.3.1.1(3,7).1(9,13)]docosa-1(20),3(22),4,6,9(21),10,12,16,18-nonaen-12-yl]-N′-[(3S)-1-(pyridin-3-ylcarbonyl)pyrrolidin-3-yl]urea bis(trifluoroacetate)], for which the pIC50 in test [1] (Table B1) is 7.92; against TYK2 (Table B1), 7.52; in test [2] (Table B1), 7.29; in test [3] (Table B1), 8.55. In test [4] (setting [9]), the “ALK % of inhibition” value was found to be 15%.
On the same counts, the results for `O=C(c1coc(Nc2ccc3cc2CCc2cccc(c2)Nc2ncc(Cl)c(n2)N3)n1)N1CCN2CCCC2C1` (stereo not drawn) [Example B296, 6-Chloro-N-[4-(hexahydropyrrolo[1,2-a]pyrazin-2(1H)-ylcarbonyl)-2,3-oxazol-2-yl]-2,4,8,22-tetraazatetracyclo[14.3.1.1(3,7).1(9,13)]docosa-1(20),3(22),4,6,9(21),10,12,16,18-nonaen-12-amine bis(trifluoroacetate)] are 7.59, 7.32, less than 6.70, 8.08 and 33%.
`O=C(Nc1ccc(N2CCOCC2)cc1)c1cc2cc(c1)Nc1nc(ncc1Cl)Nc1cccc(c1)CC2` [Example B9, 6-Chloro-N-(4-morpholin-4-ylphenyl)-2,4,8,22-tetraazatetracyclo[14.3.1.1(3,7).1(9,13)]docosa-1(20),3(22),4,6,9(21),10,12,16,18-nonaene-11-carboxamide trifluoroacetate]: the pIC50 in test [1] (Table B1) was 6.89; against TYK2 (Table B1) it was 6.17; in test [2] (Table B1), less than 6.00; in test [3] (Table B1) it was 6.58; in test [4] (setting [10]), less than 6.00.
As to `CC(=O)N1CCC(C(=O)Nc2ccc3cc2CCc2cccc(c2)Nc2ncc(Cl)c(n2)N3)CC1` [Example A29, 1-Acetyl-N-[6-chloro-2,4,8,22-tetraazatetracyclo[14.3.1.1(3,7).1(9,13)]docosa-1(20),3(22),4,6,9(21),10,12,16,18-nonaen-12-yl]piperidine-4-carboxamide trifluoroacetate], the negative-log IC50 (pIC50) in test [1] (setting [5]) is 7.51; against TYK2, 7.19; in test [2] (setting [6]), 7.51; in test [3] (setting [7]) it was 7.38. In addition, the “ALK % of inhibition” value in test [4] (setting [8]) is on record as 30%.
For the molecule `NS(=O)(=O)N1CCC(C(=O)Nc2ccc3cc2CCc2cccc(c2)Nc2ncc(Cl)c(n2)N3)CC1` [Example A72, 1-(Aminosulfonyl)-N-[6-chloro-2,4,8,22-tetraazatetracyclo[14.3.1.1(3,7).1(9,13)]docosa-1(20),3(22),4,6,9(21),10,12,16,18-nonaen-12-yl]piperidine-4-carboxamide trifluoroacetate], the pIC50 in test [1] (setting [5]) is 8.43; against TYK2, 7.80; in test [2] (setting [6]), 8.00; in test [3] (setting [7]) it was 7.74. For the same molecule, in test [4] (setting [8]), the “ALK % of inhibition” value is given as 34%.
`Cc1ccc(NC(=O)Nc2ccc3cc2CCc2cccc(c2)Nc2ncc(Cl)c(n2)N3)cc1` [Example B92, N-[6-Chloro-2,4,8,22-tetraazatetracyclo[14.3.1.1(3,7).1(9,13)]docosa-1(20),3(22),4,6,9(21),10,12,16,18-nonaen-12-yl]-N′-(4-methylphenyl)urea trifluoroacetate]: the pIC50 was 8.28 in test [1] (Table B1); 8.01 against TYK2 (Table B1); 7.21 in test [2] (Table B1); 8.40 in test [3] (Table B1); less than 6.00 in test [4] (setting [10]).
Turning to `N#Cc1cccc(C(=O)Nc2ccc3cc2CCc2cccc(c2)Nc2ncc(Cl)c(n2)N3)c1` [Example B65, N-[6-Chloro-2,4,8,22-tetraazatetracyclo[14.3.1.1(3,7).1(9,13)]docosa-1(20), 3(22),4,6,9(21),10,12,16,18-nonaen-12-yl]-3-cyanobenzamide trifluoroacetate], the pIC50 is 8.74 in test [1] (Table B1); 8.23 on TYK2 (Table B1); 8.06 in test [2] (Table B1); 8.47 in test [3] (Table B1); 6.54 in test [4] (setting [10]).
As to `Clc1cnc2nc1Nc1cccc(c1)OCc1cccc(c1)N2` [Example D7, 6-Chloro-14-oxa-2,4,8,22-tetraazatetracyclo[14.3.1.1(3,7).1(9,13)]docosa-1(20),3(22),4,6,9(21),10,12,16,18-nonaene trifluoroacetate], the pIC50 in test [1] (Table D1) is 7.21; against TYK2 (Table D1), less than 7.00; in test [2] (Table D1), less than 7.00; in test [3] (Table D1), 7.00; in test [4] (Table D1, 90 μM ATP), less than 5.00.
